Test results as given in article PMC7044277 (Nature Communications, 2020).
Values joined by “and” are separate entries in the source; they are usually repeats but may differ in a detail not shown here. Identical values can stand only once.

Key:
Format in all cases: cell-based
Set-up in all cases: GPCRome screening signal at PTGIR / GPCRome screening signal at PTH1R / GPCRome screening signal at PTH2R / GPCRome screening signal at QRFP / GPCRome screening signal at RXFP2 / GPCRome screening signal at RXFP3 / GPCRome screening signal at RXFP4 / GPCRome screening signal at S1PR2 / GPCRome screening signal at S1PR3 / GPCRome screening signal at S1PR4 / GPCRome screening signal at S1PR5 / GPCRome screening signal at SCTR / GPCRome screening signal at SSTR2 / GPCRome screening signal at SSSTR / GPCRome screening signal at SSTR4 / GPCRome screening signal at SSTR5 / GPCRome screening signal at SUCNR1 / GPCRome screening signal at TA1 / GPCRome screening signal at TAAR2 / GPCRome screening signal at TAAR5 / GPCRome screening signal at TAAR6 / GPCRome screening signal at TAAR8 / GPCRome screening signal at TACR1 / GPCRome screening signal at TACR2 / GPCRome screening signal at TACR3 / GPCRome screening signal at TBXA2R / GPCRome screening signal at TSHR / GPCRome screening signal at UTS2R / GPCRome screening signal at VIPR2 / GPCRome screening signal at GPR68 no V2 Tail / GPCRome screening signal at GRM2 / GPCRome screening signal at GRM3: reference not given here
320 non-olfactory GPCRs [1] = biological target: 320 non-olfactory GPCRs (Homo sapiens, UniProt P21453); conditions: receptor S1PR1
320 non-olfactory GPCRs [2] = biological target: T1, 320 non-olfactory GPCRs (Homo sapiens, UniProt P32241); conditions: receptor VIPR1
T1 construct: expressed in transfected cells; host or cells: HTLA cells

320 non-olfactory GPCRs [3] = biological target: T2, 320 non-olfactory GPCRs (Homo sapiens, UniProt Q14416); conditions: receptor GRM2
T2 construct: expressed in transfected cells; host or cells: HTLA cells

320 non-olfactory GPCRs [4] = biological target: T3, 320 non-olfactory GPCRs (Homo sapiens, UniProt Q969N4); conditions: receptor TAAR8
T3 construct: expressed in transfected cells; host or cells: HTLA cells

[5] = Fig_5f, single replicate values
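Throughout, for GPCRome agonism screen response: fold over basal response of each receptor without drug.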

T2 sequence (Q14416 19-872): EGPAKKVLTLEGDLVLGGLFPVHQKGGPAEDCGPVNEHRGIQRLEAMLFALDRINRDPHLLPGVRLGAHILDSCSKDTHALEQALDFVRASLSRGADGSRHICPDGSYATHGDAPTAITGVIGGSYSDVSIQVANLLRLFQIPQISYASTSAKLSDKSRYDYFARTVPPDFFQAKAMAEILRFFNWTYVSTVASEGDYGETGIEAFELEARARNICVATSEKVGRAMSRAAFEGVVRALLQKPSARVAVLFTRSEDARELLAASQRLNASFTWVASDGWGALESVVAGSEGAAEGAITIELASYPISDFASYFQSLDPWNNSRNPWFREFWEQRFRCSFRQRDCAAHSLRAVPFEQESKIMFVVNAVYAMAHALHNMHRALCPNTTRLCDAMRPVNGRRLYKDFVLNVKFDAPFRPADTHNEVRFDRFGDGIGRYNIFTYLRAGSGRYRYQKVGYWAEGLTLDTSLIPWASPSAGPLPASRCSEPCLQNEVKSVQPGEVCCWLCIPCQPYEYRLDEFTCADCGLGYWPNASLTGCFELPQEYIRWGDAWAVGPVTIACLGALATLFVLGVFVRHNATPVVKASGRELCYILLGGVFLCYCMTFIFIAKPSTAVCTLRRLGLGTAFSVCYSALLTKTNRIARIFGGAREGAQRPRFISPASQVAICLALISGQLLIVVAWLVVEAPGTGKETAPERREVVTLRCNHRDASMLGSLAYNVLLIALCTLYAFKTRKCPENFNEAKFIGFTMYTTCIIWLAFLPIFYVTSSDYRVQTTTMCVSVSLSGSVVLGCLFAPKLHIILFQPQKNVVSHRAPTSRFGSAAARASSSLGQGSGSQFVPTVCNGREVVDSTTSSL
320 non-olfactory GPCRs (Homo sapiens, UniProt P21453), sequence (P21453 whole entry): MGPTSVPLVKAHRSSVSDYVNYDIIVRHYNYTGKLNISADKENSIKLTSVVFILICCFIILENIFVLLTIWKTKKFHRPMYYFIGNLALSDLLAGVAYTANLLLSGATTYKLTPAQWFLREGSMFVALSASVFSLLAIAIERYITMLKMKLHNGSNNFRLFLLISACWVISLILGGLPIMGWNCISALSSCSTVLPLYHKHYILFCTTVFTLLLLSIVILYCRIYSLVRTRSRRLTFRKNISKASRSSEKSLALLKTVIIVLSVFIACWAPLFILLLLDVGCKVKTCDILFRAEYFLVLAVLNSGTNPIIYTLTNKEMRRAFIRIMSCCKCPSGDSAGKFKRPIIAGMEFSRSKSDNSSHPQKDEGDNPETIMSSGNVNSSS
T1 sequence (P32241 31-457): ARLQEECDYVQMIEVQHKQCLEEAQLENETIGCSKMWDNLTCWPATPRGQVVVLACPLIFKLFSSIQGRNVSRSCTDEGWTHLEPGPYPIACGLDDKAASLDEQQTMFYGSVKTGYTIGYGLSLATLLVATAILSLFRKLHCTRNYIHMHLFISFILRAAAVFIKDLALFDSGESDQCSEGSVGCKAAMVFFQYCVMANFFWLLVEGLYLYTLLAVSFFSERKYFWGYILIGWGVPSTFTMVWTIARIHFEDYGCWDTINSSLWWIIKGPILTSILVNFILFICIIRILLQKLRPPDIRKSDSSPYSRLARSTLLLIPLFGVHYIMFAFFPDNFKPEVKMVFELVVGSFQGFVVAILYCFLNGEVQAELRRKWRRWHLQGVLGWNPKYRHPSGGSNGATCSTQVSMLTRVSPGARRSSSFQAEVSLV
T3 sequence (Q969N4 whole entry): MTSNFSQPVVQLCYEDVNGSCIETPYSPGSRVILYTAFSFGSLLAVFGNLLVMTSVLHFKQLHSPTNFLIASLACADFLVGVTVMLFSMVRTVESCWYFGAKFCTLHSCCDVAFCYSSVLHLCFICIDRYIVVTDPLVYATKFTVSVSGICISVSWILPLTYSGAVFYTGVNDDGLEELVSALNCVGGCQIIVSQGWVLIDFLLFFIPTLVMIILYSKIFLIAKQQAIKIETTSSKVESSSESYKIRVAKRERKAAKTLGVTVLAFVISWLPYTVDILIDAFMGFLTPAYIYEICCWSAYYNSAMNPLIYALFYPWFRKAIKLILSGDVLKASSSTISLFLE

Compound	GPCRome screening signal at S1PR1 (320 non-olfactory GPCRs [1]; [5])	GPCRome screening signal at VIPR1 (320 non-olfactory GPCRs [2]; [5])	GPCRome screening signal at GRM2 (320 non-olfactory GPCRs [3]; [5])	GPCRome screening signal at TAAR8 (320 non-olfactory GPCRs [4]; [5])	GPCRome agonism screen response (320 non-olfactory GPCRs [1]; replicate values, Fig_4g)	GPCRome agonism screen response (320 non-olfactory GPCRs [2]; replicate values, Fig_4g)	GPCRome agonism screen response (320 non-olfactory GPCRs [3]; replicate values, Fig_4g)	GPCRome agonism screen response (320 non-olfactory GPCRs [4]; replicate values, Fig_4g)
CCOc1ccccc1CCC(C)NCC1(O)CCCCC1.Cl (racemic) [Fig_5f]	0.7005 and 1.113 and 2.609 and 1.363	1.328 and 1.861 and 1.314 and 1.467	0.9548 and 1.3016 and 1.1 and 0.9506	0.6115 and 0.4578 and 0.5144 and 0.5546				
CCOc1cccc2cc(C(C)NCC3(O)CCCCC3)oc12 (centres unmarked) [O4LE6]					2.353 and 1.219 and 1.439 and 0.7423	0.8893 and 1.908 and 1.195 and 1.527	1.717 and 0.9934 and 0.846 and 0.4952	0.2595 and 0.5748 and 0.5852 and 0.7484
